Test results: patent US4349546A, “D-Allose derivative and preparation method therefor” (Wakamoto Pharmaceutical Co., Ltd., priority 1980, dated 1982)

How the values were obtained:
[1] = tested on: leukemia L-1210, P 388, Lewis lung carcinoma, β-16 melanoma and mouse lung autotumor; assay: Antitumor effect, overall statement of the patent; assay type: in vivo, warm-blooded animals; mice
[2] = tested on: Leukemia P-388 cells; assay: Antileukemia test, P-388 (Test Example 2); assay type: in vivo, CDF mice; conditions: for ILS (rate of apothanasia): 24 hours after implantation; for Number of survivals: 60 days
Protocol: (1) Test animals: The same animals as in Test 1.
1×10^5 Leukemia P-388 cells per mouse were implanted into the abdomen of each mouse. After 24 hours, a given amount of CNUA dissolved in isotonic sodium chloride solution was administered to the mice. The rate of apothanasia (%) and number of survivals after 60 days were examined.

Q: `O=NN(CCCl)C(=O)N[C@@H]1[C@H](O)[C@@H](CO)OC(O)[C@@H]1O` (stereo partly drawn) [CNUA, 3-[3-(2-chloroethyl)-3-nitrosoureido]-3-deoxy-D-allose] was tested. Which antitumor effects [1] did it give?
A: The antitumor effects was “powerful antitumor effects”.

Q: And the “ILS (rate of apothanasia)” value ([2]; 3.75 mg/kg/day)?
A: Its value is 50%.

Q: What about the “ILS (rate of apothanasia)” value ([2]; 7.5 mg/kg/day) of the same compound?
A: The value was 90%.

Q: What about the “ILS (rate of apothanasia)” value ([2]; 15 mg/kg/day) of the same compound?
A: The value was 240%.

Q: And the “ILS (rate of apothanasia)” value ([2]; 30 mg/kg/day)?
A: The value was over 500%.

Q: What about the “ILS (rate of apothanasia)” value ([2]; 45 mg/kg/day) of the same compound?
A: Its value is over 500%.

Q: What about the “ILS (rate of apothanasia)” value ([2]; 60 mg/kg/day) of the same compound?
A: Its value is over 500%.

Q: And the Number of survivals ([2]; 3.75 mg/kg/day)?
A: Its Number of survivals is 0/7.

Q: What about the Number of survivals ([2]; 7.5 mg/kg/day) of the same compound?
A: Its Number of survivals is 0/7.

Q: And the Number of survivals ([2]; 15 mg/kg/day)?
A: The Number of survivals was 3/7.

Q: And the Number of survivals ([2]; 30 mg/kg/day)?
A: The Number of survivals was 5/7.

Q: And the Number of survivals ([2]; 45 mg/kg/day)?
A: Its Number of survivals is 7/7.

Q: And the Number of survivals ([2]; 60 mg/kg/day)?
A: The Number of survivals was 6/7.
